Measured values taken from ChEMBL document CHEMBL5537165, “Hepatitis C: The Story of a Long Journey through First, Second, and Third Generation NS3/4A Peptidomimetic Inhibitors. What Did We Learn?” (J Med Chem, 2024).
*1 amine or outer side, *2 acyl side, *3 side chain or, on linkers, in order; H or OH if unused. Where a SMILES comes first, the peptide text is derived from it. Side-chain parts run from the residue outwards. [ ]: non-standard residue; d: D form. The star is where a group is joined. Tetrahydroisoquinolin(2-yl) = c1ccc2c(c1)CCN(*)C2; Pyrazinecarbonyl = O=C(c1cnccn1)*; Hyp = O=C(O)[C@@H]1C[C@@H](O)CN1; Abu = CC[C@H](N)C(=O)O; CO = O=C([*:1])[*:2]; Bn = c1ccc(C*)cc1

Assays:
[1] = AUC in Sprague-Dawley rat at 2 mg/kg, po; format: ADME, organism-based; conditions: in vivo
[2] = Half life in Sprague-Dawley rat at 5 mg/kg, po by LC-MS/MS analysis; format: ADME, organism-based; conditions: in vivo
[3] = Half life in Beagle dog at 5 mg/kg, po by LC-MS/MS analysis; format: ADME, organism-based, Canis lupus familiaris; conditions: in vivo
[4] = Oral bioavailability in Beagle dog at 2 mg/kg; format: ADME, organism-based, Canis lupus familiaris; conditions: in vivo
[5] = molecular target: T1, Non-structural protein 4b (Hepacivirus hominis, UniProt F5B4I0); assay: Inhibition of Hepatitis C virus genotype 1a NS4B
T1 sequence (F5B4I0 whole entry): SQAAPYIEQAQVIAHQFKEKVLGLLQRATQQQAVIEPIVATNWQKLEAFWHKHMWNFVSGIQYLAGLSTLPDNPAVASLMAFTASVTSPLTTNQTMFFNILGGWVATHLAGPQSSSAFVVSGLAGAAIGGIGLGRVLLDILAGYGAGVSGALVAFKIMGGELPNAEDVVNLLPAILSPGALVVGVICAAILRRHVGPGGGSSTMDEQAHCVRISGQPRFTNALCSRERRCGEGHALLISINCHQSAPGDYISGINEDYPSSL

SARS-CoV-2 = assay: Antiviral activity against SARS-CoV-2 infected in human Huh-7 cells assessed as reduction in viral growth; format: functional, organism-based; conditions: Severe acute respiratory syndrome coronavirus 2, Huh-7
[6] = Volume of distribution at steady state in Sprague-Dawley rat at 1 mg/kg, iv; format: ADME, organism-based; conditions: in vivo, read-out: Vdss
[7] = Cmax in Sprague-Dawley rat at 3 mg/kg, po and measured upto 24 hrs by LC-MS/MS analysis; format: ADME, organism-based; conditions: in vivo
[8] = Oral bioavailability in Sprague-Dawley rat; format: ADME, organism-based; conditions: in vivo
[9] = Cmax in Beagle dog at 3 mg/kg, po and measured upto 24 hrs by LC-MS/MS analysis; format: ADME, organism-based, Canis lupus familiaris; conditions: in vivo
[10] = Clearance in Beagle dog plasma at 0.5 mg/kg, iv and measured upto 24 hrs by LC-MS/MS analysis; format: ADME, organism-based, Canis lupus familiaris
[11] = AUC (0 to infinity) in liver to plasma of Sprague-Dawley rat at 3 mg/kg,po; format: ADME, organism-based; conditions: in vivo
[12] = Volume of distribution at steady state in Beagle dog at 0.5 mg/kg, iv and measured upto 24 hrs by LC-MS/MS analysis; format: ADME, organism-based, Canis lupus familiaris; conditions: in vivo, read-out: Vdss
[13] = molecular target: T1, Non-structural protein 4b; assay: Binding affinity to Hepatitis C virus genotype 1a NS4B assessed as inhibition constant
[14] = Clearance in Sprague-Dawley rat at 2 mg/kg, iv by LC-MS/MS analysis; format: ADME, organism-based; conditions: in vivo
[15] = molecular target: T1, Non-structural protein 4b; assay: Binding affinity to Hepatitis C virus genotype 3a NS4B assessed as inhibition constant
[16] = AUC in Sprague-Dawley rat plasma […] at 10 mg/kg, po administered via gavage by LC-MS/MS analysis; format: ADME, organism-based; conditions: in vivo
[17] = Inhibition of Hepatitis C virus NS3 protease; design: species or system Hepacivirus hominis
[18] = molecular target: T1, Non-structural protein 4b; assay: Binding affinity to full length Hepatitis C virus genotype 1b NS4B expressed in Escherichia coli assessed as inhibition constant
[19] = molecular target: T1, Non-structural protein 4b; assay: Inhibition of Hepatitis C virus genotype 1b NS4B
[20] = molecular target: T1, Non-structural protein 4b; assay: Inhibition of Hepatitis C virus genotype 3a NS4B
[21] = molecular target: T1, Non-structural protein 4b; assay: Binding affinity to Hepatitis C virus genotype 1b NS4B assessed as inhibition constant
[22] = molecular target: T1, Non-structural protein 4b; assay: Binding affinity to Hepatitis C virus genotype 1 NS4B assessed as inhibition constant
[23] = molecular target: T1, Non-structural protein 4b; assay: Inhibition of full length Hepatitis C virus genotype 1b NS4B expressed in Escherichia coli
[24] = molecular target: Replicase polyprotein 1ab (Severe acute respiratory syndrome coronavirus 2, UniProt P0DTD1); assay: Inhibition of SARS-CoV-2 3CL protease by FRET assay

Cc1cnc(C(=O)N[C@H]2CCCCC/C=C\[C@@H]3C[C@@]3(C(=O)NS(=O)(=O)C3CC3)NC(=O)[C@@H]3C[C@@H](Oc4nc5ccccc5c5ccccc45)CN3C2=O)cn1
AUC [1]: 19 µM·h
half-life [2]: 0.4 h
half-life [3]: 1.2 h
bioavailability [4]: 41%

C=C[C@@H]1C[C@]1(NC(=O)[C@@H]1C[C@@H](Oc2ncc(OC)c3ccccc23)CN1C(=O)[C@@H](NC(=O)OC(C)(C)C)C(C)(C)C)C(=O)NS(=O)(=O)C1CC1
IC50 [5]: 7 nM
EC50 (SARS-CoV-2): 19 nM

C=C[C@@H]1C[C@]1(NC(=O)[C@@H]1C[C@@H](Oc2cc(-c3ccccc3)nc3cc(OC)ccc23)CN1C(=O)[C@@H](NC(=O)OC(C)(C)C)C(C)(C)C)C(=O)NS(=O)(=O)C1CC1
IC50 [5]: 1 nM
EC50 (SARS-CoV-2): 4 nM

COc1ccc2nc3c(nc2c1)O[C@@H]1CC2C(=O)N[C@]4(C(=O)NS(=O)(=O)C5(C)CC5)C[C@@H]4/C=C/CCCCC[C@H](NC(=O)O[C@@H]4CCC[C@H]4CCCCC3)C(=O)N2C1 (stereo partly specified)
Vd [6]: 4 L/kg
Cmax [7]: 70 nM
bioavailability [8]: 8%
half-life [2]: 3.8 h
Cmax [9]: 350 nM
half-life [3]: 2.3 h
bioavailability [4]: 12%
clearance [10]: 4.4 mL/min/kg
AUC [11]: 2470 µM·h
Vd [12]: 0.5 L/kg
Ki [13]: 0.005 nM
clearance [14]: 33 mL/min/kg
Ki [15]: 0.26 nM
AUC [16]: 20 µM·h

CC[C@H](C)[C@H](NC(=O)[C@@H](CC(=O)O)NC(=O)[C@H](CC(=O)O)NC(C)=O)C(=O)N[C@H](C(=O)N1CCC[C@H]1C(=O)N[C@@H](CS)C(=O)O)C(C)C (Ac-D[dD]IVPC-OH)
IC50 [17]: 4000 nM

COc1ccc2c(O[C@@H]3C[C@H]4C(=O)N[C@]5(P(=O)(O)Cc6c(F)cccc6F)C[C@H]5CCCCCCC[C@H](NC(=O)OC5CCCC5)C(=O)N4C3)cc(-c3csc(NC(C)C)n3)nc2c1Cl [GS-9256]
Ki [18]: 0.089 nM
EC50 (SARS-CoV-2): 20 nM

C=C[C@@H]1C[C@]1(NC(=O)[C@@H]1C[C@@H](Oc2cc3ccccc3cn2)CN1C(=O)[C@@H](NC(=O)OCC(C)C)C(C)(C)C)C(=O)NS(=O)(=O)C1(C)CC1
IC50 [19]: 2.7 nM
IC50 [20]: 430 nM

COc1ccc2nc(C(F)(F)F)c3c(c2c1)CC[C@]1(C[C@H]2C(=O)N[C@]4(C(=O)NS(=O)(=O)C5(C)CC5)C[C@H]4/C=C/CCCCCC(NC(=O)OC(C)(C)C)C(=O)N2C1)O3 (stereo partly specified)
IC50 [20]: 0.47 nM

CC[C@@H]1C[C@]1(NC(=O)[C@@H]1C[C@@H]2CN1C(=O)[C@H](C(C)(C)C)NC(=O)OCC(C)(C)CCCCc1cccc3c1CN(C3)C(=O)O2)C(=O)NS(=O)(=O)C1CC1
Ki [21]: 0.05 nM
IC50 [19]: 3 nM

C=C[C@@H]1C[C@]1(NC(=O)[C@@H]1C[C@]23CCc4c(c(nc5ccc(OC)cc45)CCCCC[C@@H]4C[C@H]4OC(=O)N[C@@H](C4(C)CCCCC4)C(=O)N1C2)O3)C(=O)NS(=O)(=O)C1(C)CC1
IC50 [20]: 4.5 nM

C=C[C@@H]1C[C@]1(NC(=O)[C@@H]1C[C@@H](Oc2cc(-c3ccccc3)nc3cc(OC)ccc23)CN1C(=O)[C@H](CCCCC)NC(=O)OC(C)(C)C)C(=O)O
IC50 [17]: 400 nM

Cc1nc2ccccc2c2c1O[C@]1(CC2)C[C@H]2C(=O)N[C@]3(C(=O)NS(=O)(=O)C4(C)CC4)C[C@H]3/C=C/CCCCC[C@H](NC(=O)OC(C)(C)C)C(=O)N2C1
IC50 [19]: 0.013 nM
IC50 [20]: 0.7 nM

CC[C@@H](C=O)NC(=O)[C@@H]1C[C@@H](OCc2ccccc2)CN1C(=O)[C@@H](NC(=O)[C@@H](NC(=O)[C@H](CC(=O)O)NC(=O)[C@H](CCC(=O)O)NC(C)=O)C(C)C)C(C)C (Ac-EDVV[Hyp](Bn)[Abu]-aldehyde)
Ki [22]: 890 nM

CCC[C@H](NC(=O)[C@@H]1C[C@@H](OC(=O)N2CCc3ccccc3C2)CN1C(=O)[C@@H](NC(=O)[C@@H](NC(=O)c1cnccn1)C(C)C)C(C)C)C(=O)C(=O)NC1CC1
Ki [22]: 2300 nM

CC[C@@H](C=O)NC(=O)[C@@H]1C[C@@H](OCc2ccccc2)CN1C(=O)[C@@H](NC(=O)[C@@H](NC(=O)c1cnccn1)C(C)C)C(C)C (Pyrazinecarbonyl-VV[Hyp](Bn)[Abu]-aldehyde)
Ki [22]: 12000 nM

C=C[C@@H]1C[C@]1(NC(=O)[C@@H]1C[C@@H]2CN1C(=O)[C@H](C(C)(C)C)NC(=O)O[C@@H]1C[C@H]1CCCCCc1nc3ccc(OC)cc3cc1O2)C(=O)NS(=O)(=O)C1CC1
Ki [18]: 0.02 nM
IC50 [23]: 13 nM
Ki [15]: 0.31 nM

C=C[C@@H]1C[C@]1(NC(=O)[C@@H]1C[C@]2(CCc3c(c(C)nc4ccccc34)O2)CN1C(=O)[C@@H](NC(=O)OC(C)(C)C)C(C)(C)C)C(=O)NS(=O)(=O)C1(C)CC1
IC50 [19]: 0.033 nM
IC50 [20]: 5.7 nM

CCC[C@H](NC(=O)[C@@H]1C[C@@H](OCc2cccc3ccccc23)CN1C(=O)[C@@H](NC(=O)[C@@H](NC(=O)[C@@H](CC(=O)O)NC(=O)[C@H](CC(=O)O)NC(C)=O)C1CCCCC1)C(C)C)C(=O)O
IC50 [17]: 27 nM

CC(C)(C)OC(=O)N[C@H]1CCCCC/C=C\[C@@H]2C[C@@]2(C(=O)NS(=O)(=O)C2CC2)NC(=O)[C@@H]2C[C@@H](OC(=O)N3Cc4cccc(F)c4C3)CN2C1=O [DANOPREVIR]
Ki [13]: 1 nM

C=C[C@@H]1C[C@]1(NC(=O)[C@@H]1C[C@@H](Oc2nccc3ccccc23)CN1C(=O)[C@@H](NC(=O)OC(C)(C)C)C(C)(C)C)C(=O)NS(=O)(=O)C1CC1
IC50 [5]: 7 nM
EC50 (SARS-CoV-2): 60 nM

CC[C@@H](C=O)NC(=O)[C@@H]1C[C@@H](OC(=O)N2CCc3ccccc3C2)CN1C(=O)[C@@H](NC(=O)[C@@H](NC(=O)c1cnccn1)C(C)C)C(C)C (Pyrazinecarbonyl-VV[Hyp]([CO-Tetrahydroisoquinolin(2-yl)])[Abu]-aldehyde)
Ki [22]: 890 nM

COc1ccc2c(O[C@@H]3C[C@H]4C(=O)N[C@]5(C(=O)O)C[C@H]5/C=C/CCCCC[C@H](NC(=O)OC(C)(C)C)C(=O)N4C3)cc(-c3ccccc3)nc2c1
IC50 [17]: 11 nM

C=C[C@@H]1C[C@]1(NC(=O)[C@@H]1C[C@@H](Oc2cc(-c3csc(NC(C)C)n3)nc3cc(OC)ccc23)CN1C(=O)[C@@H](NC(=O)OC1CCCC1)C(C)(C)C)P(=O)(O)O
IC50 [24]: 0.9 nM

C=C[C@@H]1C[C@]1(NC(=O)[C@@H]1C[C@@H]2CN1C(=O)[C@H](C(C)(C)C)NC(=O)OCCC/C=C/c1ccc3ccnc(c3c1)O2)C(=O)NS(=O)(=O)C1CC1
IC50 [23]: 210 nM

C=C[C@H]1C[C@]1(NC(=O)[C@@H]1C[C@@H]2CN1C(=O)[C@H](C(C)(C)C)NC(=O)OCCC/C=C/c1cccc3c1CN(C3)C(=O)O2)C(=O)NS(=O)(=O)C1CC1
Ki [18]: 0.05 nM
IC50 [23]: 7 nM

C=C[C@@H]1C[C@]1(NC(=O)[C@@H]1C[C@@H](Oc2cc(-c3ccccc3)nc3cc(OC)ccc23)CN1C(=O)[C@@H](NC(=O)OC1CCCC1)C(C)(C)C)C(=O)O
IC50 [23]: 14 nM

COc1ccc2c(O[C@@H]3C[C@H]4C(=O)N[C@]5(P(=O)(O)Cc6ccccc6)C[C@H]5CCCCCCC[C@H](NC(=O)OC5CCCC5)C(=O)N4C3)cc(-c3csc(NC(C)C)n3)nc2c1
IC50 [24]: 6 nM

COc1ccc2nc3c4c(c2c1)CC[C@]1(C[C@H]2C(=O)N[C@]5(C(=O)NS(=O)(=O)C6(C)CC6)C[C@H]5/C=C/CCCCC[C@H](NC(=O)O[C@@H]5CCC[C@H]5CCCCC3)C(=O)N2C1)O4
IC50 [24]: < 0.01 nM

COc1ccc2c(O[C@@H]3C[C@H]4C(=O)N[C@]5(C(=O)O)C[C@H]5/C=C\CCCCC[C@H](NC(=O)OC5CCCC5)C(=O)N4C3)cc(-c3csc(NC(C)C)n3)nc2c1
IC50 [17]: 3000 nM
